Patent EP0006128A1, “2,3-Dihydro-2-methyl-3-(2-(dimethylamino)-propyl)-3-phenyl-1H-indol-1-carboxaldehyde, process for its preparation and pharmaceutical preparations containing it” (Dr. Karl Thomae GmbH, priority 1978, dated 1980)
Where two headings read alike, the source gives them in different places.

Legend:
Acute toxicity in mice = details: mouse, in vivo, mice of both sexes, 20 g, 14 days observation
Protocol: Für die Bestimmung der akuten Toxizität wurden Mäuse beider Geschlechter mit einem Körpergewicht von 20 g verwendet. 10 Tiere pro Dosis erhielten die Substanz einmalig appliziert. Die Berechnung der DL50, der Dosis, nach deren Verabreichung 50 % der Tiere innerhalb der Beobachtungszeit verstarben, erfolgte i nach der Methode von LITCHFIELD und WILCOXON nach einer Beobachtungszeit von 14 Tagen: • Racemat CL50 p.o.: 545 mg/kg DL50 i.v.: 66 mg/kg, […]

Katze = test: Antitussive effect in the cat, method of Domenjoz; format: in vivo; details: dose range 0,5 bis 2 mg/kg i.v.
[1] = test system: durch Acetylcholin hervorgerufenen Bronchialspasmen; test: Broncholytic effect in guinea pigs, method of Konzett and Rössler (acetylcholine-induced bronchospasm); format: in vivo, Meerschweinchen; details: Cavia porcellus, iv, i.v. injection, dose giving 50 % reduction, read-out: Herabsetzung der durch Acetylcholin hervorgerufenen Bronchialspasmen um 50 %
Protocol: Die broncholytische Wirkung wurde an Meerschweinchen nach der Methode von KONZETT und RÖSSLER (Arch. exp. Path. Pharmakol. 195, 71, (1940)) geprüft. Die Herabsetzung der durch Acetyl- cholin hervorgerufenen Bronchialspasmen um 50 % wurde durch i.v.-Injektion von 1,5 mg/kg des Racemats erreicht, beim (-)-Enantiomeren reichten bereits 1 mg/kg aus, um etwa den gleichen Effekt zu erreichen.

wachen weißen Ratten = test: Cough test in conscious rats, cough provoked by inhaled citric acid spray; format: in vivo; details: Rattus norvegicus, po, 0.5 h; male rats, per os as Tylose suspension, 7,5 % citric acid spray over 2 min, cough count 30 min after application, dose halving the number of coughs
From the text: Die Hustenversuche wurden an wachen weißen Ratten (Geschlecht: männlich) durchgeführt. Die Hustenprovokation erfolgte durch Inhalation eines 7,5 %igen Zitronensäuresprays über 2 Minuten. 10 Tiere pro Dosis erhielten die Substanz als Tyloseaufschwemmung peroral appliziert. Die Bewertung erfolgte aus der durchschnittlichen prozentualen Abnahme der Zahl der Hustenstöße 30 Minuten nach Applikation gegenüber den Leerwerten. (Weitere methodische Angaben: ENGELHORN und PÜSCHMANN, Arzneim.-Forsch. 13, 474-480,(1963)). Die ED50 ist die Dosis, nach deren Verabreichung die Zahl der Hustenstöße durchschnittlich um die Hälfte vermindert wird, die Berechnung erfolgte nach der Methode von Litchfield und Wilcoxon. Es wurde für das Racemat eine ED50 von 3,9 mg/kg per os gefunden.

[2] = po, single dose p.o., read-out: DL50 p.o.

Compound	LD50 at 336 h (Acute toxicity in mice; iv, single dose i.v., read-out: DL50 i.v.) [mg/kg]	LD50 at 336 h (Acute toxicity in mice; [2]) [mg/kg]	antitussive Wirkung (Katze)	ED50 [1] [mg/kg]	ED50 (wachen weißen Ratten) [mg/kg]
CC(CC1(c2ccccc2)c2ccccc2N(C=O)C1C)N(C)C (racemic) [Racemat, Rac. 2,3-Dihydro-2-methyl-3-[2-(dimethylamino)-propyl]-3-phenyl-1H-indol-1-carboxaldehyd]	66	545	deutliche hustenstillende Wirkung	1.5	3.9
CC(CC1(c2ccccc2)c2ccccc2N(C=O)C1C)N(C)C (single isomer, unassigned; (+)) [(+)-Enantiomeres, (+)-2,3-Dihydro-2-methyl-3-[2-(dimethylamino)-propyl]-3-phenyl-1H-indol-1-carboxaldehyd]	–	~500	deutliche hustenstillende Wirkung	–	–
CC(CC1(c2ccccc2)c2ccccc2N(C=O)C1C)N(C)C (single isomer, unassigned; (-)) [(-)-Enantiomeres, (-)-2,3-Dihydro-2-methyl-3-/2-(dimethylamino)-propyl/-3-phenyl-1H-indol-1-carboxaldehyd]	–	~560	–	~1	–
